Peptide text beside a SMILES is read from it. * marks the point of attachment. Lauroyl = CCCCCCCCCCCC(=O)*
What was measured:
Test in all cases: microbe, parasite or virus in culture
[1] = system: P. aeruginosa 260-97103 (MDR/XDR); settings: for Potentiation / FIC index: P. aeruginosa 260-97103
Procedure: (§1) We evaluated the activity of SPRLPs in combination with fifteen clinically-used antibiotics against P. aeruginosa. Antibiotics tested included fluoroquinolones (moxifloxacin, ciprofloxacin and levofloxacin), aminoglycosides (gentamicin, tobramycin and amikacin), cephalosporins (ceftazidime and cefotaxime), carbapenems (meropenem and doripenem), aztreonam, rifampicin, minocycline, colistin and fosfomycin. The SPRLPs were screened initially at a fixed concentration of 8 μg/mL (5 μM) in combination with antibiotics against wild-type P. aeruginosa PAO1. We assessed potentiation by at least a four-fold absolute MIC reduction of the antibiotic, after which synergism was further validated by a conventional checkerboard assay. A fractional inhibitory concentration (FIC) index of ≤0.5, 0.5<x≤4 or >4 was interpreted as synergistic, indifferent or antagonistic interaction, respectively (31). FIC index was obtained by adding the FIC values of the antibiotic and the SPRLP adjuvant. FIC of antibiotics was calculated by dividing the MIC of the antibiotic in the presence of the adjuvant by the MIC of the antibiotic alone. Similarly, the FIC of adjuvant was calculated via dividing the MIC of the adjuvant in the presence of the antibiotic by the MIC of the adjuvant alone.
(§2) Isolates used in this study were either obtained from the American Type Culture Collection (ATCC), the Canadian National Intensive Care Unit (CAN-ICU) surveillance study (27) or the Canadian Ward Surveillance (CANWARD) study (28). Clinical isolates belonging to the CAN-ICU and CANWARD studies were recovered from patients suffering a presumed infectious disease entering or admitted in a participating medical center across Canada during the time of study. MDR P. aeruginosa strains in this study refer to those that are resistant to aminoglycosides, fluoroquinolones, cephalosporins, and carbapenems while XDR strains are those that are resistant to aminoglycosides, fluoroquinolones, cephalosporins, carbapenems, aztreonam and penicillin+β-lactamase inhibitor combination (39, 40).
(§3) Microbroth dilution susceptibility test following the Clinical and Laboratory Standards Institute (CLSI) guidelines (32) was performed to assess the in vitro antibacterial activity of SPRLPs. Overnight grown bacterial cultures were diluted in saline to achieve a 0.5 McFarland turbidity, followed by 1:50 dilution in Mueller-Hinton broth (MHB) for inoculation to a final concentration of 5×10^5 colony forming units/mL. The assay was done on a 96-well plate to which the agents of interest were 2-fold serially diluted in MHB and incubated with equal volumes of inoculum at 37° C. for 18 hours. MIC was determined as the lowest concentration to inhibit visible bacterial growth in form of turbidity, which was confirmed using EMax Plus microplate reader (Molecular Devices, USA) at a wavelength of 590 nm. The well containing MHB broth with or without bacterial cells was used as positive or negative control, respectively.
(§4) The assay was performed on a 96-well plate, to which the agents of interest was 2-fold serially diluted in working MHB. Prior to serial dilution, SPRLP was added to the working MHB media so that a fixed final concentration of 8 μg/mL (5 μM) SPRLP per well was achieved. To ensure that the assay was working, the MIC determination test of the studied antibiotic (without SPRLP) was included on the same plate. Similar MIC results between the assay comparator and an independent MIC determination test (on a different plate) ensured validity of the synergy test. Overnight grown bacterial cultures were diluted in saline to 0.5 McFarland turbidity, followed by 1:50 dilution in MHB (without SPRLP) and inoculation into each well to a final concentration of approximately 5×10^5 colony forming units/mL. Wells containing only MHB (without SPRLP) with or without bacterial cells were used as positive or negative control, respectively.

[2] = system: P. aeruginosa 101243 (colistin-resistant, MDR/XDR); settings: for Potentiation / FIC index: P. aeruginosa 101243 (colistin-resistant)
Procedure: as §1, §2, §3, §4

[3] = system: P. aeruginosa 91433 (colistin-resistant, MDR/XDR); settings: P. aeruginosa 91433 (colistin-resistant)
Procedure: as §1, §2, §3, §4

[4] = system: P. aeruginosa 264-104354 (MDR/XDR); settings: P. aeruginosa 264-104354
Procedure: as §1, §2, §3, §4

[5] = system: P. aeruginosa 101885 (MDR/XDR); settings: for Potentiation / FIC index: P. aeruginosa 101885
Procedure: as §1, §2, §3, §4

[6] = system: P. aeruginosa 259-96918 (MDR/XDR); settings: P. aeruginosa 259-96918
Procedure: as §1, §2, §3, §4

[7] = system: P. aeruginosa 262-101856 (MDR/XDR); settings: P. aeruginosa 262-101856
Procedure: as §1, §2, §3, §4

[8] = system: P. aeruginosa 100036 (MDR/XDR); settings: P. aeruginosa 100036
Procedure: as §1, §2, §3, §4

[9] = degree of minocycline potentiation in the presence of 8 μg/mL (5 μM) lipopeptide
[10] = degree of rifampicin potentiation in the presence of 8 μg/mL (5 μM) lipopeptide
[11] = lipopeptide in combination with minocycline (MIN)
[12] = lipopeptide in combination with rifampicin (RMP)
[13] = antibiotic or lipopeptide alone

In the case of `CCCCCCCCCCCC(=O)N1CCC[C@H]1C(=O)N[C@@H](CCCNC(=N)N)C(=O)N1CCC[C@H]1C(=O)N[C@@H](CCCNC(=N)N)C(=O)N1CCC[C@H]1C(=O)N[C@@H](CCCNC(=N)N)C(=O)N1CCC[C@H]1C(N)=O` [Compound C12-PRP, CH3(CH2)10CO-PRPRPRP-NH2] (Lauroyl-PRPRPRP-NH2), the “MIC (agent alone)” value ([1]; 260-97103 (MDR/XDR)) is reported as 128 mg/L, the Potentiation [1, 9] is reported as 16-fold and the Potentiation [1, 10] is reported as 8-fold. The FIC index [1, 11] was 0.12, the FIC index [1, 12] was 0.16 and the “MIC (agent alone)” value ([2]; 101243 (colistin-resistant, MDR/XDR)) was 128 mg/L. The Potentiation [2, 9] was 4-fold, the Potentiation [2, 10] was 32-fold and the FIC index [2, 11] was 0.31. For the same compound, the FIC index [2, 12] was 0.09, the “MIC (agent alone)” value [3, 13] was >128 mg/L and the Potentiation [3, 9] was 4-fold. For the same compound, the Potentiation [3, 10] was 16-fold, the “MIC (agent alone)” value [4, 13] was >128 mg/L and the Potentiation [4, 9] was 16-fold. The Potentiation [4, 10] was 16-fold, the “MIC (agent alone)” value ([5]; 101885 (MDR/XDR)) was 64 mg/L and the Potentiation [5, 9] was 4-fold. For the same compound, the Potentiation [5, 10] was 8-fold, the FIC index [5, 11] was 0.37 and the FIC index [5, 12] was 0.25. For the same compound, the “MIC (agent alone)” value [6, 13] was >128 mg/L, the Potentiation [6, 9] was 8-fold and the Potentiation [6, 10] was 8-fold. The “Absolute MIC MIN” value ([7]; MIC of minocycline in the presence of 8 μg/mL (5 μM) lipopeptide) was 16 mg/L, the “MIC (agent alone)” value [7, 13] was >128 mg/L and the Potentiation [7, 9] was 4-fold. For the same compound, the Potentiation [7, 10] was “none”, the “MIC (agent alone)” value [8, 13] was >128 mg/L and the Potentiation [8, 9] was 4-fold. For the same compound, the Potentiation [8, 10] was 16-fold.
